# Data as given in patent US10829473B2, “Modulators of the cystic fibrosis transmembrane conductance regulator protein and methods of use” (AbbVie Overseas S.Á.R.L., priority 2017, dated 2020).
# Like-named read-outs stand apart in the source and are kept apart here. Marks after values point to notes of the source that are not given here.
# Target: T1, F508delCFTR (Homo sapiens, UniProt P13569, DEL508-508)
# T1 construct: expressed in transfected cells; host or cells: CFBE41o- human lung derived epithelial cells (CFBE41o-F508delCFTR-HRP), doxycycline-inducible
# Experiment: Cell Surface Expression-Horse Radish Peroxidase (CSE-HRP) Assay;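 on EC50 (with co-corrector): co-corrector chromenyl benzoic acid corrector at 2 or 3 µM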;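 on Maximum % activity (without co-corrector): % of on-plate positive control chromenyl benzoic acid corrector at 2 or 3 µM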
# Format: cell-based
# Conditions: for Maximum % activity (with co-corrector) / Emax: maximum at any tested concentration; for Emax: read-out: Maximum % activity (without co-corrector)
# Outline: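 Corrector compounds were given as 8-point 3-fold series from 20 or 30 μM, with or without a 2 μM co-corrector, for 18-24 h at 33 °C. Surface HRP was read by luminol luminescence as % of positive control; variable-Hill-slope sigmoidal fitting gave EC50 from triplicate plates.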
# [1] = test compound alone, without co-corrector, read-out: EC50 (without co-corrector)
# [2] = with co-corrector, read-out: EC50 (with co-corrector)
# [3] = test compound with co-corrector
# [4] = test compound with co-corrector, read-out: EC50 (with co-corrector)
# [5] = test compound without co-corrector
# [6] = test compound without co-corrector, read-out: EC50 (without co-corrector)
# T1 sequence (P13569 with tags, fused parts or gaps DEL508-508): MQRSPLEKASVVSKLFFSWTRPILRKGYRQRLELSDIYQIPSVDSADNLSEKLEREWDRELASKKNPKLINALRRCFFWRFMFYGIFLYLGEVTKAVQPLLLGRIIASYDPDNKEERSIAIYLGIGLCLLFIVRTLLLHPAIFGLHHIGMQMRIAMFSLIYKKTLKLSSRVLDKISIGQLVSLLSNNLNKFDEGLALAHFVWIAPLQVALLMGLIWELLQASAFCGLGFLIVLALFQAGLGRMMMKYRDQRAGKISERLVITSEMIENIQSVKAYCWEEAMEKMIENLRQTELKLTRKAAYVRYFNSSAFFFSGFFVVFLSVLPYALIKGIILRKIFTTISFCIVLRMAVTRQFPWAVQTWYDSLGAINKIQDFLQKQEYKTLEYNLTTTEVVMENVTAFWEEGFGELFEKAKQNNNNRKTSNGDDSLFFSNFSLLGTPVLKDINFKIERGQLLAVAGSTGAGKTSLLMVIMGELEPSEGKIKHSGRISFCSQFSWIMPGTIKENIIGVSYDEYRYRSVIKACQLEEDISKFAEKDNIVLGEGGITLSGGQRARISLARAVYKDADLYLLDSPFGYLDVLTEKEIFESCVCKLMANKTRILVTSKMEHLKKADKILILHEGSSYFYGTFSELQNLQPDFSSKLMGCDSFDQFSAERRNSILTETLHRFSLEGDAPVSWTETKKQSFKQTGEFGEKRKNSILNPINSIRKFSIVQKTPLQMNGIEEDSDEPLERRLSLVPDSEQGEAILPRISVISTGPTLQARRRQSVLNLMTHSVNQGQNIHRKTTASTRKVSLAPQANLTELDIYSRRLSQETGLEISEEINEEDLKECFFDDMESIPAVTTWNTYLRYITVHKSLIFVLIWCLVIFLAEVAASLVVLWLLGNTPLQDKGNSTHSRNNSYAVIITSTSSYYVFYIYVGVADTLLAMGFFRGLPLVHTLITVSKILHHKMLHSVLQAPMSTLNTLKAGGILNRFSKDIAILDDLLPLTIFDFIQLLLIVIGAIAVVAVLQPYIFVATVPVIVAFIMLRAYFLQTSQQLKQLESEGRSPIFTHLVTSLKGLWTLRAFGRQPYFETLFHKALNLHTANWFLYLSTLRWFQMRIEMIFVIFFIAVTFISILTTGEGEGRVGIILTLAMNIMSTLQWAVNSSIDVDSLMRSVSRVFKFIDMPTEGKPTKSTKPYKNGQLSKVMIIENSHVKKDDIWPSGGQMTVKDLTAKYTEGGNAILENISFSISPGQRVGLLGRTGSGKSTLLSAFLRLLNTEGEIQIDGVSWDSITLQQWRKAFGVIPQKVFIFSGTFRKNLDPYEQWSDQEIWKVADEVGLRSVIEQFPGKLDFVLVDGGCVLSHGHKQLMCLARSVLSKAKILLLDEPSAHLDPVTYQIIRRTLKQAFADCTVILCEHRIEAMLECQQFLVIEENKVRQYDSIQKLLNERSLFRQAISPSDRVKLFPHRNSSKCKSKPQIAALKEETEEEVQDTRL
EC50 [1] [µM],Maximum % activity (with co-corrector) (with co-corrector),EC50 [2] [µM],Emax (without co-corrector) [%],Maximum % activity (with co-corrector) [3],EC50 [4] [µM],Emax [5] [%],EC50 [6] [µM],EC50 (without co-corrector) [5],SMILES
3 to 10,+++ (≥350),3 to 10,50 to 150,–,–,–,–,–,"COc1ccc(C#N)cc1C1(C(=O)NS(=O)(=O)c2cccc3ncccc23)CC1 [Example III-99, 1-(5-cyano-2-methoxyphenyl)-N-(quinoline-5-sulfonyl)cyclopropane-1-carboxamide]"
3 to 10,+++ (≥350),< 3,> 150,–,–,–,–,–,Cc1ccc(O[C@H]2CCOC2)c(C2(C(=O)NS(=O)(=O)c3cccc4ncccc34)CC2)c1 [II-117]
3 to 10,+++ (≥350),< 3,> 150,–,–,–,–,–,COc1ccc(C(OC)C(F)(F)F)cc1C1(C(=O)NS(=O)(=O)c2cccc3ncccc23)CC1 (centres unmarked) [II-86]
–,–,–,–,+++ (≥350),3 to 10,50 to 150,–,++^a,"COc1ccc(C2(C(=O)NS(=O)(=O)c3cccc4ccccc34)CC2)c(C)n1 [GII-19, 1-(6-methoxy-2-methylpyridin-3-yl)-N-(naphthalene-1-sulfonyl)cyclopropane-1-carboxamide]"
< 3,+++ (≥350),< 3,> 150,–,–,–,–,–,COc1ncc(C2CCC2)cc1C1(C(=O)NS(=O)(=O)c2cccc3c2ccn3C)CC1 [II-14]
3 to 10,+++ (≥350),< 3,> 150,–,–,–,–,–,COc1ccccc1C1(C(=O)NS(=O)(=O)c2cccc3ncccc23)CCC1 [II-6]
< 3,+++ (≥350),< 3,> 150,–,–,–,–,–,COC[C@H](C)Oc1ccc(C)cc1C1(C(=O)NS(=O)(=O)c2cccc3ncccc23)CC1 [II-92]
< 3,+++ (≥350),< 3,> 150,–,–,–,–,–,CCc1ccc(O[C@H]2CCOC2)c(C2(C(=O)NS(=O)(=O)c3cccc4nc(C)ccc34)CC2)c1 [II-115]
–,–,–,–,+++ (≥350),3 to 10,50 to 150,3 to 10,–,"COc1cc(C2(C(=O)NS(=O)(=O)c3cccc4ncccc34)CC2)c(C)cn1 [GII-13, 1-(2-methoxy-5-methylpyridin-4-yl)-N-(quinoline-5-sulfonyl)cyclopropane-1-carboxamide]"
3 to 10,+++ (≥350),3 to 10,> 150,–,–,–,–,–,COc1cccc(C2(C(=O)NS(=O)(=O)c3cccc4ncccc34)CC2)c1 [II-56]
3 to 10,++ (≥150 and <350),< 3,< 50,–,–,–,–,–,"CC(C)(C)OC(=O)N1CCC(C(=O)NS(=O)(=O)c2cccc3ccccc23)(c2ccc(F)cc2)CC1 [Example III-89, tert-butyl 4-(4-fluorophenyl)-4-[(naphthalene-1-sulfonyl)carbamoyl]piperidine-1-carboxylate]"
3 to 10,+++ (≥350),3 to 10,> 150,–,–,–,–,–,"COc1ncc(C(F)(F)F)cc1C1(C(=O)NS(=O)(=O)c2cccc3[nH]ncc23)CC1 [Example III-98, N-(1H-indazole-4-sulfonyl)-1-[2-methoxy-5-(trifluoromethyl)pyridin-3-yl]cyclopropane-1-carboxamide]"
< 3,+++ (≥350),< 3,> 150,–,–,–,–,–,COc1ccc(C)c(C)c1C1(C(=O)NS(=O)(=O)c2cccc3c2CCCN3)CC1 [II-36]
> 10,+ (<150),> 10,< 50,–,–,–,–,–,"O=C(NS(=O)(=O)C1CCS(=O)(=O)C1)C1(c2ccc(Cl)cc2Cl)CC1 (centres unmarked) [Example III-36, 1-(2,4-dichlorophenyl)-N-(1,1-dioxo-1λ^6-thiolane-3-sulfonyl)cyclopropane-1-carboxamide]"
–,–,–,–,++ (≥150 and <350),3 to 10,50 to 150,3 to 10,–,"CC(C)Oc1ncccc1C1(C(=O)NS(=O)(=O)c2cccc3ncccc23)CC1 [GII-3, 1-{2-[(propan-2-yl)oxy]pyridin-3-yl}-N-(quinoline-5-sulfonyl)cyclopropane-1-carboxamide]"
> 10,+ (<150),> 10,< 50,–,–,–,–,–,"COc1ccc(C2(C(=O)NS(=O)(=O)c3cccc4ccccc34)CCCC2)cc1OC [Example III-90, 1-(3,4-dimethoxyphenyl)-N-(naphthalene-1-sulfonyl)cyclopentane-1-carboxamide]"

# More lines, now with the values behind:
SMILES,EC50 [1] [µM],Maximum % activity (with co-corrector) (with co-corrector),EC50 [2] [µM],Emax (without co-corrector) [%],Maximum % activity (with co-corrector) [3],EC50 [4] [µM],Emax [5] [%],EC50 [6] [µM],EC50 (without co-corrector) [5]
"Cc1cnc(OCC2CC2)c(C2(C(=O)NS(=O)(=O)c3cccc4ncccc34)CC2)c1 [Example GI-96, 1-[2-(cyclopropylmethoxy)-5-methylpyridin-3-yl]-N-(quinoline-5-sulfonyl)cyclopropane-1-carboxamide]",–,–,–,–,+++ (≥350),< 3,> 150,3 to 10,–
"COc1ccc(C2CC2)c(C)c1C1(C(=O)NS(=O)(=O)c2cccc3ncccc23)CC1 [Example I-48, 1-(3-cyclopropyl-6-methoxy-2-methylphenyl)-N-(quinoline-5-sulfonyl)cyclopropane-1-carboxamide]",< 3,+++ (≥350),< 3,> 150,–,–,–,–,–
"CCc1ccc(O[C@H](C)COC)c(C2(C(=O)NS(=O)(=O)c3cccc4ncccc34)CC2)c1 [Example I-111, 1-(5-ethyl-2-{[(2R)-1-methoxypropan-2-yl]oxy}phenyl)-N-(quinoline-5-sulfonyl)cyclopropane-1-carboxamide]",< 3,+++ (≥350),< 3,> 150,–,–,–,–,–
"COc1ccc(C)c(OC)c1C1(C(=O)NS(=O)(=O)c2cccc3nc(C)ccc23)CC1 [Example I-43, 1-(2,6-dimethoxy-3-methylphenyl)-N-(2-methylquinoline-5-sulfonyl)cyclopropane-1-carboxamide]",< 3,+++ (≥350),< 3,> 150,–,–,–,–,–
"CCc1cnc(OC(C)C)c(C2(C(=O)NS(=O)(=O)c3cccc4nc(C)ccc34)CC2)c1 [Example GI-40, 1-{5-ethyl-2-[(propan-2-yl)oxy]pyridin-3-yl}-N-(2-methylquinoline-5-sulfonyl)cyclopropane-1-carboxamide]",–,–,–,–,+++ (≥350),< 3,> 150,< 3,–
"CCc1cnc(OCC(C)C)c(C2(C(=O)NS(=O)(=O)c3cccc4nc(C)ccc34)CC2)c1 [Example GI-46, 1-[5-ethyl-2-(2-methylpropoxy)pyridin-3-yl]-N-(2-methylquinoline-5-sulfonyl)cyclopropane-1-carboxamide]",–,–,–,–,+++ (≥350),< 3,> 150,< 3,–
"COc1ccc(C23CC(C2)C3)cc1C1(C(=O)NS(=O)(=O)c2cccc3ncccc23)CC1 [Example I-38, 1-[5-(bicyclo[1.1.1]pentan-1-yl)-2-methoxyphenyl]-N-(quinoline-5-sulfonyl)cyclopropane-1-carboxamide]",< 3,+++ (≥350),< 3,> 150,–,–,–,–,–
"COc1ccc(C)c(OC)c1C1(C(=O)NS(=O)(=O)c2cccc3ccccc23)CC1 [Example I-40, 1-(2,6-dimethoxy-3-methylphenyl)-N-(naphthalene-1-sulfonyl)cyclopropane-1-carboxamide]",< 3,+++ (≥350),< 3,> 150,–,–,–,–,–
"Cc1ccc2c(S(=O)(=O)NC(=O)C3(c4cc(C5CCC5)cnc4N4CCCC4)CC3)cccc2n1 [Example GI-29, 1-[5-cyclobutyl-2-(pyrrolidin-1-yl)pyridin-3-yl]-N-(2-methylquinoline-5-sulfonyl)cyclopropane-1-carboxamide]",–,–,–,–,+++ (≥350),< 3,> 150,< 3,–
"Cc1cnc(OCC2CC2)c(C2(C(=O)NS(=O)(=O)c3cccc4nc(C)ccc34)CC2)c1 [Example GI-101, 1-[2-(cyclopropylmethoxy)-5-methylpyridin-3-yl]-N-(2-methylquinoline-5-sulfonyl)cyclopropane-1-carboxamide]",–,–,–,–,+++ (≥350),< 3,> 150,3 to 10,–
"COc1cccc(OC)c1C1(C(=O)NS(=O)(=O)c2cccc3ccccc23)CC1 [Example I-7, 1-(2,6-dimethoxyphenyl)-N-(naphthalene-1-sulfonyl)cyclopropane-1-carboxamide]",3 to 10,+++ (≥350),< 3,> 150,–,–,–,–,–
"CC(C)Oc1ncc(C2CCC2)cc1C1(C(=O)NS(=O)(=O)c2cccc3[nH]ccc23)CC1 [Example GI-24, 1-{5-cyclobutyl-2-[(propan-2-yl)oxy]pyridin-3-yl}-N-(1H-indole-4-sulfonyl)cyclopropane-1-carboxamide]",< 3,+++ (≥350),< 3,> 150,–,–,–,–,–
"CC(C)COc1ccc(OC(C)C)c(C2(C(=O)NS(=O)(=O)c3cccc4ncccc34)CC2)n1 [Example GI-86, 1-{6-(2-methylpropoxy)-3-[(propan-2-yl)oxy]pyridin-2-yl}-N-(quinoline-5-sulfonyl)cyclopropane-1-carboxamide]",–,–,–,–,+++ (≥350),< 3,> 150,< 3,–
